Measured values from US20220257774A1, “AROMATIC AMINE AR AHD BET TARGETING PROTEIN DEGRADATION CHIMERA COMPOUND AND USE” (HINOVA PHARMACEUTICALS INC., priority 2019, published 2022).
Read-outs that look alike come from different tables or passages of the source.

How the values were obtained:
Assay type in all cases: cell-based
Androgen receptor (AR) = test: Down-regulation/degradation of AR determined by Western blot in CWR22RV1 cells; conditions: concentration 100 nM, 24 h
Protocol: (§1) The Down-Regulation on the Protein Expression of Androgen Receptors AR and Brd4 Determined by Western Blot CWR22RV1 cells (National Collection of Authenticated Cell Cultures. TCHu100) FBS (Gibco, Cat. No. 10099-141) 0.01M PBS (Biosharp. Cat. No. 162262) RIPM1640 (Hyclone, Cat. No. 308090.01) Penicillin-Streptomycin (Hyclone. Cat. No. SV30010) DMSO (Sigma. Cat. No. D5879) Centrifuge tube, 15 ml (Excell Bio. Cat. No. CS015-0001) Cell culture plate (Excell Bio. Cat. No. CS016-0128) 6-well cell culture cluster (Corning, Cat. No. 3516) RIPA lysate buffer (Beyotime, Cat. No. P0013B) Protein loading buffer (Beyotime, Cat. No. P0015L) CA protein assay kit (Beyotime, Cat. No. P0012) SDS-PAGE gel preparation kit (Chengdu Baihe Technology Co., Ltd. Cat. No. PG112) Anti-β-tubulin mouse mAb (Zen Bioscience, Cat. No. 200608) Androgen Receptor ([…]) XP Rabbit mAb (CST. Cat. No. 5153) Anti-cMyc(D3N8F) Rabbit mAb (CST. Cat. No. 13987) Anti-BRD4(E2A7X) rabbit mAb (CST, Cat. No. 13440) Peroxidase Affinipure(HRP) Goat Anti-Mouse IgG (Zen Bioscience, Cat. No. 511103) Peroxidase Affinipure(HRP) Goat Anti-Rabbit IgG (Zen Bioscience, Cat. No. 511203) TBST (Biosharp. Cat. No. B[…]) ECL chemiluminescence kit (Beyotime, Cat. No. […]1 cells were subcultured in cell culture media, and then the cells in good growth condition were seeded in a 6-well plate at 2 ml/well (1×10^6 cells/well), and cultured overnight in a 37° C., 5% CO2 cell incubator. 2) The drug was prepared as a 10 mM stock solution with dimethyl sulfoxide (DMSO). […] The plate was gently tapped to thoroughly mix. In addition, the experiment included negative control wells (containing equal amount of DMSO) and positive control wells. 3) After culturing 24 hi, the cells were lysed with RIPA cell lysate, and the protein was extracted. […] The first antibody (Androgen Receptor ([…]) XP Rabbit mAb. Anti-cMyc(D3N8F) Rabbit mAb, Anti-BRD4(E2A7X) rabbit mAb and Anti-β-Tubulin Mouse mAb) was added and incubated overnight at 4° C. The membrane was rinsed with TBST solution three times, 10 min for each time. The secondary antibody (horseradish peroxidase labeled goat anti mouse IgG) was added and incubated at room temperature for 2 h, and then the membrane was washed with TBST solution three times, 10 m for each time. Finally. ECL chemiluminescence solution was added, and then photos were taken with automatic chemiluminescence instrument to collect pictures for analysis.

BRD4 = target: T1, BRD4 (Homo sapiens, UniProt O60885); test: Down-regulation/degradation of BRD4 determined by Western blot in CWR22RV1 cells; conditions: concentration 100 nM, 24 h
T1 construct: CWR22RV1 cells were subcultured in cell culture media; endogenous in cells; host or cells: CWR22RV1 cells
Protocol: as §1

LNCaP/AR cells = test: Inhibition of the proliferation of LNCap/AR cells (CCK-8); conditions: read-out: LNCap/AR IC50
In short: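 LNCaP/AR cells (1000/well, RPMI1640 + 10% FBS) were treated for 6 days at 37 °C with 9-point 3-fold dilutions from 10 μM final, 0.1% DMSO, in duplicate. Viability was read by CCK-8 absorbance at 450 nm after 1 h, and IC50 came from a dose-response-inhibition fit.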

22RV1 cells = test: Inhibition of the proliferation of drug-resistant prostate cancer cell 22RV1 (CCK-8); conditions: 22RV1 cells (enzalutamide-resistant), same method
In short: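 22RV1 cells, 1000/well in RPMI1640 with 10% FBS, treated in duplicate with 9-point 3-fold dilutions from 10 μM (0.1% DMSO final). After 6 days at 37 °C, CCK-8 added for 1 h and OD450 read. IC50 from dose-response inhibition fit.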

[1] = 144 h, LNCaP/AR cells, 6 days culture, CCK-8

IC50 (LNCaP/AR cells; [1]) [nM] | IC50 (22RV1 cells) [nM] | IC50 (LNCaP/AR cells; LNCaP/AR cells, 6 days culture, CCK-8) [nM] | IC50 (22RV1 cells; Homo sapiens) [nM] | Compound | AR (% degradation) (Androgen receptor (AR)) | BRD4 (% degradation) (BRD4) | IC50 (LNCaP/AR cells; LNCaP/AR, 144 h) [nM]
– | < 100 | 501 to 2000 | – | Cc1ccc(-c2c(C)noc2C)cc1N(c1ccc(C2(C#N)CC2)cc1)C1CN([C@H]2C[C@H](Nc3cc4c(cc3F)CN([C@@H]3CCC(=O)NC3=O)C4=O)C2)C1 [Compound 70] | C (49%-20% of the target protein was degraded) | C (49%-20% of the target protein was degraded) | –
< 100 | – | – | – | Cc1ccc(-c2c(C)noc2C)cc1N(CCCCCNc1ccc2c(c1)C(=O)N(C1CCC(=O)NC1=O)C2=O)c1ccc(C2(C#N)CC2)cc1 (centres unmarked) [Compound 147, 1-(4-((5-(3,5-Dimethylisoxazol-4-yl)-2-methylphenyl)(5-((2-(2,6-dioxopiperidin-3)-1,3-dicarbonylisoindolin-5))amino)pentyl)amino)phenylcyclopropanecarbonitrile] | C (49%-20% of the target protein was degraded) | A (>80% of the target protein was degraded) | –
501 to 2000 | – | – | 501 to 2000 | Cc1ccc(-c2c(C)noc2C)cc1N(CCCOC1CN(c2cc3c(cc2F)CN(C2CCC(=O)NC2=O)C3=O)C1)c1ccc(C2(C#N)CC2)cc1 (centres unmarked) [Compound 123, 1-(4-((5-(3,5-dimethylisoxazol-4-yl)-2-methylphenyl)(3-((1-(2-(2,6-dioxopiperidin-3-yl)-6-fluoro-3-oxoisoindolin-5-yl)azetidin-3-yl)oxy)propyl)amino)phenyl)cyclopropane-1-nitrile] | D (<20% of the target protein was degraded) | C (49%-20% of the target protein was degraded) | –
> 2000 | – | – | > 2000 | Cc1ccc(-c2c(C)noc2C)cc1N(CC1(COC2CN(c3ccc4c(c3)C(=O)N(C3CCC(=O)NC3=O)C4=O)C2)CC1)c1ccc(C2(C#N)CC2)cc1 (centres unmarked) [Compound 137, 1-(4-((5-(3,5-Dimethylisoxazol-4-yl)-2-methylphenyl)((1-(((1-(2-(2,6-dioxopiperidin-3-yl)-1,3-dioxoisoindolin-5-yl)azetidin-3-yl)oxy)methyl)cyclopropyl)methyl)amino)phenyl)cyclopropane-1-nitrile] | C (49%-20% of the target protein was degraded) | B (79%-50% of the target protein was degraded) | –
< 100 | – | – | < 100 | Cc1ccc(-c2c(C)noc2C)cc1N(CC1CCN(C2CN(c3cc4c(cc3F)CN(C3CCC(=O)NC3=O)C4=O)C2)CC1)c1ccc(C2(C#N)CC2)cc1 (centres unmarked) [Compound 159] | C (49%-20% of the target protein was degraded) | B (79%-50% of the target protein was degraded) | –

More lines, now with the values behind:

Compound | IC50 (LNCaP/AR cells; [1]) [nM] | IC50 (22RV1 cells) [nM] | IC50 (LNCaP/AR cells; LNCaP/AR cells, 6 days culture, CCK-8) [nM] | IC50 (22RV1 cells; Homo sapiens) [nM] | AR (% degradation) (Androgen receptor (AR)) | BRD4 (% degradation) (BRD4) | IC50 (LNCaP/AR cells; LNCaP/AR, 144 h) [nM]
Cc1ccc(-c2c(C)noc2C)cc1N(CCCCCOCC(=O)N[C@H](C(=O)N1C[C@H](O)C[C@H]1C(=O)N[C@@H](C)c1ccc(-c2scnc2C)cc1)C(C)(C)C)c1ccc(-n2ccnc2)c(Br)c1 [Compound 10, (2S,4R)-1-((S)-2-(2-((5-((3-bromo-4-(1H-imidazol-1-yl)phenyl)(5-(3,5-dimethylisoxazol-4-yl)-2-methylphenyl)amino)n-pentyl)oxy)acetylamino)-3,3-dimethylbutyryl)-4-hydroxy-N—((S)-1-(4-(4-methylthiazol-5-yl)phenyl)ethyl)pyrrolidinyl-2-formamide] | < 100 | – | – | – | B (79%-50% of the target protein was degraded) | B (79%-50% of the target protein was degraded) | –
Cc1ccc(-c2c(C)noc2C)cc1N(C[C@H]1CC[C@H](CNc2ccc3c(c2)CN(C2CCC(=O)NC2=O)C3=O)CC1)c1ccc(C2(C#N)CC2)cc1 (some centres unmarked) [Compound 194] | 101 to 500 | – | – | < 100 | D (<20% of the target protein was degraded) | D (<20% of the target protein was degraded) | –
Cc1ccc(-c2c(C)noc2C)cc1N(CCCCNc1cc2c(cc1F)C(=O)N(C1CCC(=O)NC1=O)C2)c1ccc(C2(C#N)CC2)cc1 (centres unmarked) [Compound 43, 1-(4-((5-(3,5-Dimethylisoxazol-4-yl)-2-methylphenyl)(4-((2-(2,6-dioxopiperidin-3-yl)-6-fluoro-1-oxoisoindolin-5-yl)amino)butyl)amino)phenyl)cyclopropane-1-nitrile] | 501 to 2000 | – | – | < 100 | B (79%-50% of the target protein was degraded) | C (49%-20% of the target protein was degraded) | –
Cc1ccc(-c2c(C)noc2C)cc1N(C[C@H]1CC[C@H](CNc2ccc3c(c2)C(=O)N(C2CCC(=O)NC2=O)C3=O)CC1)c1ccc(C2(C#N)CC2)cc1 (some centres unmarked) [Compound 149] | < 100 | – | – | < 100 | A (>80% of the target protein was degraded) | A (>80% of the target protein was degraded) | –
Cc1ccc(-c2c(C)noc2C)cc1N(CC1CN(C2CN(c3cc4c(cc3F)C(=O)N(C3CCC(=O)NC3=O)C4)C2)C1)c1ccc(C2(C#N)CC2)cc1 (centres unmarked) [Compound 157] | < 100 | – | – | < 100 | B (79%-50% of the target protein was degraded) | A (>80% of the target protein was degraded) | –
Cc1ccc(-c2c(C)noc2C)cc1N(CC1CC(Nc2cc3c(cc2F)C(=O)N(C2CCC(=O)NC2=O)C3=O)C1)c1ccc(C2(C#N)CC2)cc1 (centres unmarked) [Compound 37] | 501 to 2000 | – | – | 101 to 500 | D (<20% of the target protein was degraded) | D (<20% of the target protein was degraded) | –
Cc1ccc(-c2c(C)noc2C)cc1N(CCCCNc1ccc2c(c1)C(=O)N(C1CCC(=O)NC1=O)C2=O)c1ccc(C#N)c(Cl)c1 (centres unmarked) [Compound 165, 2-Chloro-4-((5-(3,5-dimethylisoxazol-4-yl)-2-methylphenyl)(4-((2-(2,6-dioxopiperidin-3)-1,3-dioxyisoindolin-5-yl)amino)butyl)amino)benzonitrile] | – | – | – | > 2000 | C (49%-20% of the target protein was degraded) | A (>80% of the target protein was degraded) | 501 to 2000
Cc1ccc(-c2c(C)noc2C)cc1N(CCOC1(C)CN(c2cc3c(cc2F)C(=O)N(C2CCC(=O)NC2=O)C3=O)C1)c1ccc(C2(C#N)CC2)cc1 (centres unmarked) [Compound 111, 1-(4-((5-(3,5-Dimethylisoxazol-4-yl)-2-methylphenyl)(2-((1-(2-(2,6-dioxopiperidin-3-yl)-6-fluoro-1,3-dioxoisoindolin-5-yl)-3-methylazetidin-3-yl)oxy)ethyl)amino)phenyl)cyclopropanecarbonitrile] | > 2000 | – | – | 101 to 500 | D (<20% of the target protein was degraded) | D (<20% of the target protein was degraded) | –
Cc1ccc(-c2c(C)noc2C)cc1N(CCCCCNc1ccc2c(c1)CN(C1CCC(=O)NC1=O)C2=O)c1ccc(C2(C#N)CC2)cc1 (centres unmarked) [Compound 145, 1-(4-((5-(3,5-dimethylisoxazol-4-yl)-2-methylphenyl)(5-((2-(2,6-dioxopiperidin-3)-1-isoindolinone-5-yl))amino)pentyl)amino)phenylcyclopropanecarbonitrile] | < 100 | – | – | – | C (49%-20% of the target protein was degraded) | C (49%-20% of the target protein was degraded) | –
